Counter-ions that a name gives are not always drawn. Like-named read-outs stand apart in the source and are kept apart here.

For assay [1], the target named is T1, cloned human H3 receptors (Homo sapiens, UniProt Q9Y5N1).
T1 construct: expressed in transfected cells
Put plainly: H3 Receptor Binding (Human). Particulars: cloned human H3 receptors stably expressed in SK-N-MC cells; average of the results obtained; read-out: Human H3 Ki. The protocol: H3 Receptor Binding (Human)
Binding of compounds to the cloned human H3 receptors, stably expressed in SK-N-MC cells, was performed as described by Barbier, A. J. et al. (Br. J. Pharmacol. 2004, 143(5), 649-661).

The target in assay [2] is T2, human H3 receptor (Homo sapiens, UniProt Q9Y5N1).
T2 construct: expressed in transfected cells; host or cells: SK-N-MC sublines with a reporter construct
T2 sequence (Q9Y5N1 whole entry): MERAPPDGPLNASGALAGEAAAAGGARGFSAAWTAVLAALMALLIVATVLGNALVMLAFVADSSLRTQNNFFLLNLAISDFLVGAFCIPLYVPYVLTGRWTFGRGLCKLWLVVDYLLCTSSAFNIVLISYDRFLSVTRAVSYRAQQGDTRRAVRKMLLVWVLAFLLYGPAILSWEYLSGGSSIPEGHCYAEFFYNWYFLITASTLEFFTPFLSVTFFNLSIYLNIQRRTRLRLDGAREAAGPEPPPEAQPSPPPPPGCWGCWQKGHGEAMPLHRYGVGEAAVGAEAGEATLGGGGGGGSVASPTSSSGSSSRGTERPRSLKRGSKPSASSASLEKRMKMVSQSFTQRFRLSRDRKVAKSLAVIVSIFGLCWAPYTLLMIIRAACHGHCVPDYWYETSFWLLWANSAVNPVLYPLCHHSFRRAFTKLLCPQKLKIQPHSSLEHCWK
The assay is described as follows: Cyclic AMP Accumulation (human H3 receptor). The class given is cell-based. The source says: (§1) Sublines of SK-N-MC cells were created that expressed a reporter construct and either the human or rat H3 receptor.

The target in assay [3] is T3, Rat H3 (Rattus norvegicus, UniProt Q9QYN8). The assay is described as follows: cell-based.
Source text: as §1
Target sequence in this assay (Q9QYN8 whole entry): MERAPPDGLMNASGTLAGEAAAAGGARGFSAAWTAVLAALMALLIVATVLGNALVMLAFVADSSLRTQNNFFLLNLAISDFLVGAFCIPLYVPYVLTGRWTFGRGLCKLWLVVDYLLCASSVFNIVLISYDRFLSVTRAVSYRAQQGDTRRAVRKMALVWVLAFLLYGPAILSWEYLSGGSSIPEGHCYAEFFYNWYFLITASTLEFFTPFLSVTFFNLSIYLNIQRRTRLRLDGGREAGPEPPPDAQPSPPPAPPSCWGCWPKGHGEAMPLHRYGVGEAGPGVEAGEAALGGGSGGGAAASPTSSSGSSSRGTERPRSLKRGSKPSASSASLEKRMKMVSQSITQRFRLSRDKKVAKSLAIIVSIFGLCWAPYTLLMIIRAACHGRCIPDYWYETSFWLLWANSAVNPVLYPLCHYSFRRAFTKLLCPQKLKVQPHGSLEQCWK

For assay [4], the target named is T3, Rat H3. Put plainly: H3 Receptor Binding (Rat). The settings on record: rat brain membranes without cerebellum, 0.8 nM N-[3H]-α-methylhistamine, 60 min at 25° C.; average of the results obtained. The protocol: H3 Receptor Binding (Rat)
A rat brain without cerebellum (Zivic Laboratories Inc., Pittsburgh, Pa.) was homogenized in 50 mM Tris-HCl/5 mM EDTA and centrifuged at 1,000 rpm for 5 min. The supernatant was removed and recentrifuged at 15,000 rpm for 30 min. Pellets were rehomogenized in 50 mM Tris/5 mM EDTA (pH 7.4). Membranes were incubated with 0.8 nM N-[^3H]-α-methylhistamine plus/minus test compounds for 60 min at 25° C. and harvested by rapid filtration over GF/C glass fiber filters (pretreated with 0.3% polyethylenimine) followed by four washes with buffer. Nonspecific binding was defined in the presence of 100 μM histamine.
Target sequence in this assay (Q9QYN8 1-397 isoform Q9QYN8-3): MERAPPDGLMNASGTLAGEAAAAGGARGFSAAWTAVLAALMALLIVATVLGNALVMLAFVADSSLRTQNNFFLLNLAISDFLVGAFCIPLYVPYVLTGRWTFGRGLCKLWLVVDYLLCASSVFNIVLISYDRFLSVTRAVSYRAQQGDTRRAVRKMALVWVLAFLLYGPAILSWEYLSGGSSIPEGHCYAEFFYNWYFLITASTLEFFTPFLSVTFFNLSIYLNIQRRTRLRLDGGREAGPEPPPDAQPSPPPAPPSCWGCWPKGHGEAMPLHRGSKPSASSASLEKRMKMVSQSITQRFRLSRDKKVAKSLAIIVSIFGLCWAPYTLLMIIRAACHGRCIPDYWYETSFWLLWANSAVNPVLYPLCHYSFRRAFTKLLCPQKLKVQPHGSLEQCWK

[5] abbreviates: SK-N-MC subline expressing reporter construct and human H3 receptor, average.
[6] abbreviates: SK-N-MC subline expressing reporter construct and rat H3 receptor, average, read-out: Rat pA2 (converted).

T1 sequence (Q9Y5N1 whole entry): as the sequence (Q9Y5N1 whole entry) above

With `Cc1ccc(Oc2ccc(C(=O)N3CCCN(C4CCC4)CC3)cn2)cc1` [Example 104, (4-Cyclobutyl-[1,4]diazepan-1-yl)-(6-p-tolyloxy-pyridin-3-yl)-methanone], in assay [1], the Ki is 2 nM. For the same molecule, the Kb in assay [2] is 0.724 nM; in assay [3], 4.27 nM.

With `O=C(c1ccc(Oc2ccc(Cl)cc2)cn1)N1CCCN(C2CCC2)CC1` [Example 68, [5-(4-Chloro-phenoxy)-pyridin-2-yl]-(4-cyclobutyl-[1,4]diazepan-1-yl)-methanone trifluoroacetic acid salt], in assay [1], the inhibitory constant (Ki) came out at 2 nM. In assay [2] (setting [5]), the “Human pA2” value is 8.61. Also, the Kb in assay [3] (setting [6]) is 15.8 nM.

In the case of `O=C(c1ccc(Oc2ccc(Cl)c(Cl)c2)nc1)N1CCCN(C2CCCC2)CC1` [Example 66, (4-Cyclopentyl-[1,4]diazepan-1-yl)-[6-(3,4-dichloro-phenoxy)-pyridin-3-yl]-methanone], in assay [1], the inhibition constant Ki was determined as 1 nM. The Kb was 1.12 nM in assay [2] and 11.5 nM in assay [3].

Turning to `O=C(c1ccc(Oc2ccc(F)cc2)nc1)N1CCCN(C2CCCC2)CC1` [Example 67, (4-Cyclopentyl-[1,4]diazepan-1-yl)-[6-(4-fluoro-phenoxy)-pyridin-3-yl]-methanone], in assay [1], the inhibitory constant (Ki) was 2 nM. In addition, the Kb in assay [2] is 1.35 nM; in assay [3], 6.76 nM.

For `O=C(c1ccc(Oc2ccccc2)nc1)N1CCCN(C2CCCC2)CC1` [Example 65, (4-Cyclopentyl-[1,4]diazepan-1-yl)-(6-phenoxy-pyridin-3-yl)-methanone], in assay [1], the inhibition constant Ki came out at 2 nM. In addition, the Kb in assay [2] is 1.15 nM; in assay [3], 0.661 nM.

Regarding `O=C(c1ccc(Oc2ccc(F)cc2)nc1)N1CCN(C2CCCC2)CC1` [Example 74, (4-Cyclopentyl-piperazin-1-yl)-[6-(4-fluoro-phenoxy)-pyridin-3-yl]-methanone], in assay [1], the inhibitory constant (Ki) amounted to 7 nM. Further, the Kb was 8.91 nM in assay [2] and 36.3 nM in assay [3].

In the case of `O=C(c1ccc(Sc2ccccc2)nc1)N1CCCN(C2CCC2)CC1` [Example 86, (4-Cyclobutyl-[1,4]diazepan-1-yl)-(6-phenylsulfanyl-pyridin-3-yl)-methanone], the Ki in assay [1] is 1 nM. Besides, the “Human pA2” value in assay [2] (setting [5]) came to 9.48. Moreover, the Kb in assay [3] (setting [6]) is 3.16 nM.

Take `O=C(c1ccc(Oc2ccc(Cl)c(Cl)c2)cn1)N1CCCN(C2CC2)CC1` [Example 52, (4-Cyclopropyl-[1,4]diazepan-1-yl)-[5-(3,4-dichloro-phenoxy)-pyridin-2-yl]-methanone trifluoroacetic acid salt]: the Ki in assay [1] worked out at 4 nM; in assay [4], 110 nM.

For `CSc1ccc(Oc2ccc(C(=O)N3CCCN(C4CCC4)CC3)cn2)cc1` [Example 105, (4-Cyclobutyl-[1,4]diazepan-1-yl)-[6-(4-methylsulfanyl-phenoxy)-pyridin-3-yl]-methanone], the results for the Ki in assay [1] and in assay [4] were 11 nM and 32 nM, respectively.

Turning to `Cc1cc(Oc2ccc(C(=O)N3CCCN(C4CC4)CC3)nc2C#N)ccc1Cl` [Example 57, 3-(4-Chloro-3-methyl-phenoxy)-6-(4-cyclopropyl-[1,4]diazepane-1-carbonyl)-pyridine-2-carbonitrile], the inhibition constant Ki is 3 nM in assay [1] and 132 nM in assay [4].

For `N#Cc1cccc(Oc2ccc(C(=O)N3CCCN(C4CC4)CC3)cn2)c1` [Example 11, 3-[5-(4-Cyclopropyl-[1,4]diazepane-1-carbonyl)-pyridin-2-yloxy]-benzonitrile], the figures for the Ki in assay [1] and in assay [4] were 7 nM and 447 nM, respectively. Besides, the “Human pA2” value in assay [2] (setting [5]) stood at 8.53.

For the molecule `O=C(c1ccc(Oc2cccc(Cl)c2)cn1)N1CCCN(C2CCC2)CC1` [Example 70, [5-(3-Chloro-phenoxy)-pyridin-2-yl]-(4-cyclobutyl-[1,4]diazepan-1-yl)-methanone trifluoroacetic acid salt], the inhibition constant Ki in assay [1] was 2 nM. In addition, the “Human pA2” value in assay [2] (setting [5]) is reported as 8.72. Also, the Kb in assay [3] (setting [6]) is 19.1 nM.

As for `O=C(c1ccc(Oc2ccccc2Cl)nc1)N1CCCN(C2CCC2)CC1` [Example 73, [6-(2-Chloro-phenoxy)-Pyridin-3-yl]-(4-cyclobutyl-[1,4]diazepan-1-yl)-methanone], the Ki in assay [1] was 4 nM. The Kb is 0.309 nM in assay [2] (SK-N-MC subline expressing reporter construct and human H3 receptor, average, read-out: Human pA2 (converted)); 1.2 nM in assay [3] (setting [6]).

For `O=C(c1ccc(Oc2ccc(F)c(F)c2)nc1)N1CCCN(C2CC2)CC1` [Example 27, (4-Cyclopropyl-[1,4]diazepan-1-yl)-[6-(3,4-difluoro-phenoxy)-pyridin-3-yl]-methanone], the inhibition constant (Ki) in assay [1] was determined as 4 nM; in assay [4] it was 86 nM.

Turning to `O=C(c1ccc(Sc2ccc(F)cc2)nc1)N1CCCN(C2CCC2)CC1` [Example 83, (4-Cyclobutyl-[1,4]diazepan-1-yl)-[6-(4-fluoro-phenylsulfanyl)-pyridin-3-yl]-methanone], the “Human pA2” value in assay [2] (setting [5]) is 9.48. Further, the Kb in assay [3] (setting [6]) was 3.24 nM.

Turning to `O=C(c1ccc(Oc2ccc(F)cc2)nc1)N1CCCN(C2CC2)CC1` [Example 18, (4-Cyclopropyl-[1,4]diazepan-1-yl)-[6-(4-fluoro-phenoxy)-pyridin-3-yl]-methanone], the Ki in assay [1] was determined as 2 nM; in assay [4], 68 nM.

On to `N#Cc1nc(C(=O)N2CCCN(C3CC3)CC2)ccc1Oc1ccc(F)cc1` [Example 59, 6-(4-Cyclopropyl-[1,4]diazepane-1-carbonyl)-3-(4-fluoro-phenoxy)-pyridine-2-carbonitrile], for which the Ki in assay [1] stood at 3 nM. Also, the Kb was 3.09 nM in assay [2] and 26.9 nM in assay [3].

Regarding `O=C(c1ccc(Oc2cccc(Cl)c2)nc1)N1CCCN(C2CC2)CC1` [Example 23, [6-(3-Chloro-phenoxy)-pyridin-3-yl]-(4-cyclopropyl-[1,4]diazepan-1-yl)-methanone], the Ki in assay [1] came out at 3 nM; in assay [4], 70 nM.

With `O=C(c1ccc(Oc2ccc(F)cc2F)nc1)N1CCCN(C2CC2)CC1` [Example 32, (4-Cyclopropyl-[1,4]diazepan-1-yl)-[6-(2,4-difluoro-phenoxy)-pyridin-3-yl]-methanone], the results for the Ki in assay [1] and in assay [4] were 4 nM and 92 nM, respectively.

`O=C(c1ccc(Oc2cccc(F)c2)nc1)N1CCCN(C2CC2)CC1` [Example 37, (4-Cyclopropyl-[1,4]diazepan-1-yl)-[6-(3-fluoro-phenoxy)-pyridin-3-yl]-methanone]: the Ki was determined as 5 nM in assay [1] and 130 nM in assay [4].

Take `N#Cc1nc(C(=O)N2CCCN(C3CC3)CC2)ccc1Oc1ccccc1F` [Example 61, 6-(4-Cyclopropyl-[1,4]diazepane-1-carbonyl)-3-(2-fluoro-phenoxy)-pyridine-2-carbonitrile]: the Ki in assay [1] stood at 6 nM. Also, the Kb in assay [2] was 3.63 nM; in assay [3] it was 32.4 nM.

Consider `Cc1cc(Oc2ccc(C(=O)N3CCCN(C4CC4)CC3)cn2)ccc1Cl` [Example 12, [6-(4-Chloro-3-methyl-phenoxy)-pyridin-3-yl]-(4-cyclopropyl-[1,4]diazepan-1-yl)-methanone], for which the figures for the Ki in assay [1] and in assay [4] were 5 nM and 51 nM, respectively. The molecule further showed a Kb in assay [2] of 5.5 nM.

As for `O=C(c1ccc(Sc2ccc(F)cc2)cn1)N1CCCN(C2CCC2)CC1` [Example 84, (4-Cyclobutyl-[1,4]diazepan-1-yl)-[5-(4-fluoro-phenylsulfanyl)-pyridin-2-yl]-methanone trifluoroacetic acid salt], the inhibition constant Ki was determined as 2 nM in assay [1] and 37 nM in assay [4].

(Values after US8940731B2, “Substituted pyridyl amide compounds as modulators of the histamine H3 receptor” (Janssen Pharmaceutica NV, priority 2006, dated 2015).)
